# Source: paper PMC6271079, “Amino Acid Derivatives of Ligustrazine-Oleanolic Acid as New Cytotoxic Agents” (Molecules, 2014)
# What was measured:
# [1] = system: NF-κB/p65 and COX-2; parameters: method as in PMID 24147349; details: S180 mice; cited from earlier work
# [2] = system: mice; details: via gavage in mice; earlier studies, no reference given; cited from earlier work
# [3] = logP by shake flask-ultraviolet spectrophotometry; type: physicochemical; details: n-caprylic alcohol-water (octanol/water); pH 6.8, n-caprylic alcohol-water, shake flask-UV; read-out: logP (octanol-water partition coefficient)
# Text: Lipophilicity (ClogP) is used in rational drug design as a key factor related to the cell transmembrane transport or other biological processes. ClogP values can either be calculated experimentally or predicted by means of commercially available programs. In this work, ClogP values of the TOA-amino acid derivatives were predicted using Sybyl-X 2.0 (Tripos, Certara Inc., St. Louis, MO, USA). […] To determine the octanol-water partition coefficient (logP), a shake flask-ultraviolet spectrophotometry method was used to determine the concentration of 6a and TOA in the water phase and organic phase at pH 6.8 with n-caprylic alcohol-water as the simulation system. […] However, the better activity connected with the increases of these amino acid conjugates’ solubility is worthy of further study.
# [4] = system: HT-29; assay: MTT cytotoxicity assay, HT-29; type: cell-based; details: HT-29, 72 h, human colorectal cancer cells
# Protocol: (§1) The cytotoxicity of these compounds was tested on five cells lines by the standard MTT assay. The human cancer cells lines (HepG2, HT-29, Hela, BGC-823) and MDCK cells were provided by the Chinese Academy of Medical Sciences Peking Union Medical College. The tumor cells were cultured in RPMI 1640 medium supplemented with 10% (v/v) fetal bovine serum and 1% (v/v) penicillin-streptomycin (Thermo Technologies, New York, NY, USA) at 37 °C in a humidified atmosphere with 5% CO2. The growing tumor cells at a density 3 × 10^3 cells/mL were exposed to various concentrations of the tested drugs and incubated in a 96-well microtiter plate for 72 h (37 °C, 5% CO2). After MTT solution (20 μL, 5 mg/mL) was added to each well, the plate was incubated for a further 4 h. Then the media was removed. Formazan crystals were dissolved with DMSO (150 μL). After mixing well, the absorbance was quantified at 490 nm with a BIORAD 550 spectrophotometer (Bio-rad Life Science Development Ltd., Beijing, China). Wells containing no drugs were used to be blanks. The IC50 values were defined as the concentration of compounds that produced a 50% reduction of surviving cells and calculated using the Logit-method. Tumor cell growth inhibitory rate was calculated in the following Equation (1): % inhibition = (1 − Sample group OD/Control group OD) × 100%(1)
# [5] = system: Hela; assay: MTT cytotoxicity assay, Hela; type: cell-based, human; details: Homo sapiens, 72 h, cervical cancer cells
# Protocol: as §1
# [6] = system: MDCK cells; assay: MTT toxicity (nephrotoxicity) evaluation, MDCK; type: cell-based; details: Canis lupus familiaris, MDCK, 72 h, Madin-Darby canine kidney cells
# Protocol: as §1
# [7] = system: HepG2; assay: MTT cytotoxicity assay, HepG2; type: cell-based; details: HepG2, 72 h, human hepatoma cells
# Protocol: as §1
# [8] = system: BGC-823; assay: MTT cytotoxicity assay, BGC-823; type: cell-based; details: BGC-823, 72 h, human gastric cancer cells
# Protocol: as §1
compound,measurement,setting,value
"Cc1nc(C)c(COC(=O)[C@]23CCC(C)(C)CC2C2=CCC4[C@@]5(C)CC[C@H](O)C(C)(C)C5CC[C@@]4(C)[C@]2(C)CC3)nc1C (stereo partly drawn) [TOA, 3β-Hydroxyolea-12-en-28-oic acid-3,5,6-trimethylpyrazine-2-methyl Ester]",Expression of NF-κB/p65 and COX-2,[1],prevented the expression
same,LD50,[2],exceeded 6.0 g/kg
same,logP,[3],6.11
same,IC50,[4],> 25 µM
same,IC50,[5],8.68 µM
same,IC50,[6],> 25 µM
same,IC50,[7],21.4 µM
same,IC50,[8],> 25 µM
